# In US20260184712A1, “Heterocyclic Compounds as ENT Inhibitors and Compounds for Use in the Treatment of Cancers” (iTeos Belgium SA, priority 2022, published 2026):
# Target: T1, human ENT1 (Homo sapiens, UniProt Q99808)
# T1 construct: JAR cells expressing ENT1 were purchased from ATCC; host or cells: JAR cells
# T1 sequence (Q99808 1-456): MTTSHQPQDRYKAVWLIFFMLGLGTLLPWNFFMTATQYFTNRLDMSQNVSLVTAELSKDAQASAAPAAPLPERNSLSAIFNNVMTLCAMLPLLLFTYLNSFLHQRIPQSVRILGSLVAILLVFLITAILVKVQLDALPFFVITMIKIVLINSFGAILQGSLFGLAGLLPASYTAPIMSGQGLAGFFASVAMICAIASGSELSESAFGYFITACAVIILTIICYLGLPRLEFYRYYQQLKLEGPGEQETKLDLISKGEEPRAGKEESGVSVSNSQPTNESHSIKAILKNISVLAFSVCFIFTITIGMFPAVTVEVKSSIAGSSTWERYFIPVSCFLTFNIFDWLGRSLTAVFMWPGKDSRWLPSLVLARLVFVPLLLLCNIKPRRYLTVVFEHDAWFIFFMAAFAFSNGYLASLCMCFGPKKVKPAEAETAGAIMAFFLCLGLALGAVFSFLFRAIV
# Experiment: ENT1 binding assay (competition with Sahenta-DY647 on JAR cells)
# Settings: competition with SAHENTA-DY647 binding; IC50 categorized; read-out: Binding Assay IC50
# Procedure: Compounds of the present disclosure were assayed to show ability to bind to human ENT1. The assay is a competition between a compound of interest and Sahenta-DY647, an ENT1 inhibitor that emits fluorescence (Ex=630 nm, Em=670 nm). By measuring the fluorescence at the end of the assay, one can assess the binding potency of the compounds tested. The compounds of the present disclosure were tested and compared to known ENT inhibitors, dilazep and NBMPR:
# JAR cells expressing ENT1 were purchased from ATCC® (HTB-144TM). Cells were cultured in RPMI 1640 medium (LONZA®, #BE12-702F/U1) supplemented with 10% FBS (GIBCO®, #10270-106), 10 mM Hepes (LONZA®, #BE17-737E), 1 mM Sodium Pyruvate (LONZA®, #BE13-115E), and 2% Penicillin/Streptomycin (LONZA®, #DE17-603E) at 37° C. and 5% CO2.
# The assay was conducted with the following buffer on the day of the assay: HBSS (LONZA®, #LO-527F) supplemented with 10 mM Hepes (LONZA®, #BE17-737E) and 0.1% BSA (Miltenyi®, #130-091-376).
# JAR cells were resuspended in the described buffer. The compounds of interest and Sahenta-DY647 were diluted 200× with the described buffer.
# A total of 50,000 cells were pre-incubated for 30 min at 4° C. with the compounds of the present disclosure before adding the corresponding amount of Sahenta-DY647 (100 nM) to the minimal concentration at Bmax and incubating for an additional 30 min at 4° C. The total volume of the reaction was 100 μL (50 μL of cells, 25 μL of the compounds of the present disclosure, and 25 μL of Sahenta-DY647) in a U-bottom 96 well plate (Greiner®, #650-180). The plates were washed 2× by centrifugation (4 min, 400 rcf at 4° C.) in the same buffer. Cells were re-suspended in 70 μL of the buffer and 50 μL was transferred to a Black 384 Optiplate (PerkinElmer®, #6007279). Fluorescence (Ex=630 nm, Em=670 nm) was acquired on a Spectramax i3x (Molecular Devices®).
# Dose-response data from the compounds were analyzed with Graphpad Prism 9.1.1@software, using nonlinear regression applied to a sigmoidal dose-response model and the following equation:
# Y=Bottom+(Top-Bottom)/(1+10^((LogIC50−X)*HillSlope)), with a shared bottom and top between the test reagent and dipyridamole.
# Data from multiple experiments were compiled by taking the average pIC50 value for the reagent in question±the standard deviation (s.d.) and expressing it as an average IC50 value in nM.
# The inhibitory effect of the test compound was expressed as a percentage of the inhibition of SAHENTA-DY647 binding.
row,SMILES,IC50 [nM]
1,C[C@H]1O[C@@H](n2cnc3c(C(=O)Nc4ccc([N+](=O)[O-])cc4)ncnc32)[C@H](O)[C@@H]1O [Compound 341],> 500
2,C[C@H]1O[C@@H](n2c(N[C@H]3CC[C@](C)(O)CC3)nc3c(OCc4ccc(C#N)cc4)ncnc32)[C@H](O)[C@@H]1O [Compound 132],1 to 20
3,C[C@H]1O[C@@H](n2c(N[C@H]3CC[C@](C)(O)CC3)nc3c(OCc4ccc(C(F)(F)F)cc4)ncnc32)[C@H](O)[C@@H]1O [Compound 125],1 to 20
4,C[C@H]1O[C@@H](n2cnc3c(SCc4nc(-c5ccccc5Cl)no4)ncnc32)[C@H](O)[C@@H]1O [Compound 310],> 500
5,C[C@H]1O[C@@H](n2c(O)nc3c(OCc4ccc([N+](=O)[O-])cc4)ncnc32)[C@H](O)[C@@H]1O [Compound 247],> 500
6,C[C@H]1O[C@@H](n2cnc3c(OC4CCc5ccc([N+](=O)[O-])cc5C4)ncnc32)[C@H](O)[C@@H]1O (some centres unmarked) [Compound 228],> 500
7,C[C@H]1O[C@@H](n2c(N)nc3c(OCc4ccccc4)ncnc32)[C@H](O)[C@@H]1O [Compound 355],> 500
8,CC(CCO)Nc1nc2c(OCc3ccc(F)cc3)ncnc2n1[C@@H]1O[C@H](C)[C@@H](O)[C@H]1O (some centres unmarked) [Compound 98],1 to 20
9,CC(C)Nc1nc2c(N3CCc4ccc([N+](=O)[O-])cc4C3)ncnc2n1[C@@H]1O[C@H](C)[C@@H](O)[C@H]1O [Compound 149],1 to 20
10,C[C@H]1O[C@@H](n2cnc3c(N[C@H]4C[C@@H]4c4ccc(Cl)cc4)ncnc32)[C@H](O)[C@@H]1O [Compound 327],> 500
11,C[C@H]1O[C@@H](n2c(N[C@H]3CC[C@@H](O)CC3)nc3c(N4CCc5ccccc5C4)ncnc32)[C@H](O)[C@@H]1O [Compound 195],20 to 500
12,Cc1nnc(CSc2ncnc3c2ncn3[C@@H]2O[C@H](C)[C@@H](O)[C@H]2O)o1 [Compound 398],> 500
13,C[C@H]1OC(n2cnc3c(COc4ccc(C#N)c(F)c4)ncnc32)[C@H](O)[C@@H]1O (some centres unmarked) [Compound 258],> 500
14,C[C@H]1O[C@@H](n2cnc3c(NCc4ccc(-n5ccnn5)cc4)ncnc32)[C@H](O)[C@@H]1O [Compound 326],> 500
15,C[C@H]1O[C@@H](n2cnc3c(OCCc4cnc(C#N)c(F)c4)ncnc32)[C@H](O)[C@@H]1O [Compound 265],> 500
16,C[C@H]1O[C@@H](n2cnc3c(OCCc4ccc(=O)n(C)c4)ncnc32)[C@H](O)[C@@H]1O [Compound 401],> 500
17,C[C@H]1O[C@@H](n2c(N[C@H]3CC[C@H](O)CC3)nc3c(N4CCc5ccccc5C4)ncnc32)[C@H](O)[C@@H]1O [Compound 171],20 to 500
18,C[C@H]1O[C@@H](n2cnc3c(OCc4ccc([N+](=O)[O-])cn4)ncnc32)[C@H](O)[C@@H]1O [Compound 281],> 500
19,C[C@H]1O[C@@H](n2cnc3c(OCc4ccc(Cl)c(C(F)(F)F)c4)ncnc32)[C@H](O)[C@@H]1O [Compound 250],> 500
20,CC(CCO)Nc1nc2c(OCc3ccc(OC(F)(F)F)cc3)ncnc2n1[C@@H]1O[C@H](C)[C@@H](O)[C@H]1O (some centres unmarked) [Compound 99],1 to 20
21,C[C@H]1O[C@@H](n2c(NCC3COC3)nc3c(OCc4ccc(OC(F)F)cc4)ncnc32)[C@H](O)[C@@H]1O [Compound 424],> 500
22,Cc1cc(CSc2ncnc3c2ncn3[C@@H]2O[C@H](C)[C@@H](O)[C@H]2O)n(C)n1 [Compound 289],> 500
23,C[C@H]1O[C@@H](n2cnc3c(N4CCC(c5ccc([N+](=O)[O-])cc5)C4)ncnc32)[C@H](O)[C@@H]1O (some centres unmarked) [Compound 315],> 500
24,C[C@H]1O[C@@H](n2cnc3c(NCc4cccc(OC(F)(F)F)c4)ncnc32)[C@H](O)[C@@H]1O [Compound 335],> 500

row,SMILES,IC50 [nM]
1,C[C@H]1O[C@@H](n2cnc3c(OCc4cccc(C#N)c4)ncnc32)[C@H](O)[C@@H]1O [Compound 221],> 500
2,C[C@H]1O[C@@H](n2cnc3c(OCc4ccc([N+](=O)[O-])cc4)nc(Cl)nc32)[C@H](O)[C@@H]1O [Compound 222],> 500
3,Cc1cccc(C)c1CNc1ncnc2c1ncn2[C@@H]1O[C@H](C)[C@@H](O)[C@H]1O [Compound 331],> 500
4,C[C@H]1O[C@@H](n2cnc3c(OCc4ccc(-n5cccn5)cc4)ncnc32)[C@H](O)[C@@H]1O [Compound 328],> 500
5,C[C@H]1O[C@@H](n2c(NC3CCCC3)nc3c(OCc4ccc([N+](=O)[O-])nc4)ncnc32)[C@H](O)[C@@H]1O [Compound 85],< 1
6,C[C@H]1O[C@@H](n2cnc3c(C(=O)N4CCc5ccc([N+](=O)[O-])cc5C4)ncnc32)[C@H](O)[C@@H]1O [Compound 360],> 500
7,C[C@H]1O[C@@H](n2cnc3c(OCCc4ccc(C(F)F)nc4)ncnc32)[C@H](O)[C@@H]1O [Compound 400],> 500
8,C[C@H]1O[C@@H](n2cnc3c(CO[C@H]4CC[C@H](C(F)(F)F)CC4)ncnc32)[C@H](O)[C@@H]1O [Compound 371],> 500
9,C[C@H]1O[C@@H](n2c(NCC3CCC(F)(F)C3)nc3c(OCc4ccc(C#N)cc4)ncnc32)[C@H](O)[C@@H]1O (some centres unmarked) [Compound 105],1 to 20
10,Cc1nn(C)c(C)c1CNc1nc2c(OCc3ccc([N+](=O)[O-])cc3)ncnc2n1[C@H]1O[C@H](C)[C@@H](O)[C@H]1O [Compound 67],< 1
11,C[C@H]1O[C@@H](n2cnc3c(OCCc4ccc([N+](=O)[O-])nc4)ncnc32)[C@H](O)[C@@H]1O [Compound 248],> 500
12,C[C@H]1O[C@@H](n2cnc3c(OCc4cccc(C(N)=O)c4)ncnc32)[C@H](O)[C@@H]1O [Compound 373],> 500
13,O=[N+]([O-])c1ccc(COc2ncnc3c2nnn3[C@@H]2C[C@H](OCCO)[C@@H](O)[C@H]2O)cc1 [Compound 309],> 500
14,Cc1c(N[C@@H]2O[C@H](C)[C@@H](O)[C@H]2O)ncnc1OCCc1ccc([N+](=O)[O-])cc1 [Compound 345],> 500
15,C[C@H]1O[C@@H](n2cnc3c(SCc4ccc(C(=O)O)cc4)ncnc32)[C@H](O)[C@@H]1O [Compound 409],> 500
16,C[C@H]1O[C@@H](n2cnc3c(SCc4ccc(C#N)cn4)ncnc32)[C@H](O)[C@@H]1O [Compound 257],> 500
17,"CC1OC(n2c(NC3CC(C)(O)C3)nc3c(OCc4ccc([N+](=O)[O-])cc4)ncnc32)C(O)C1O (single isomer, unassigned) [Compound 134]",< 1
18,O=[N+]([O-])c1ccc(COc2ncnc3c2ncn3[C@@H]2O[C@H](COCCN3CCCC3)[C@@H](O)[C@H]2O)cc1 [Compound 240],> 500
19,C[C@H]1O[C@@H](n2c(NCc3cnn(C)c3)nc3c(N4CCc5ccc([N+](=O)[O-])cc5C4)ncnc32)[C@H](O)[C@@H]1O [Compound 138],< 1
20,C[C@H]1O[C@@H](n2c(N[C@H]3CC[C@@](C)(O)CC3)nc3c(OCc4ccc(C#N)cc4)ncnc32)[C@H](O)[C@@H]1O [Compound 131],1 to 20
21,Cc1ncc(CNc2nc3c(OCc4ccc(C#N)cc4)ncnc3n2[C@@H]2O[C@H](C)[C@@H](O)[C@H]2O)cn1 [Compound 71],1 to 20
22,C[C@H]1O[C@@H](n2cnc3c(NCCc4ccc([N+](=O)[O-])cc4)ncnc32)[C@H](O)[C@@H]1O [Compound 252],> 500
23,C[C@H]1O[C@@H](n2cnc3c(CN4Cc5ccc(C#N)cc5C4)ncnc32)[C@H](O)[C@@H]1O [Compound 317],> 500
